Results: PubChem BioAssay (NCI)
Several values for one entry are separate records, joined by “and”; a condition that tells them apart may be missing. Equal entries are not always repeated.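 A five-concentration, 48-hour dose response in 96-well plates underlies each endpoint, interpolated linearly between surrounding concentrations. At the GI50, growth is halved. The concentration for full growth arrest is given as TGI.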 Where a SMILES comes first, the peptide text is derived from it. [ ]: non-standard residue; d: D form. The star is where a group is joined. ξ: configuration not given here. X6 = FC(F)(F)c1cc(NC(=S)*)cc(C(F)(F)F)c1; ξF = NC(Cc1ccccc1)C(=O)O

Legend:
Experiment in all cases: NCI anticancer screen, dose series, 48 h
[1] = test system: MDA-MB-468 breast
[2] = test system: OVCAR-4 ovarian
[3] = test system: SF-268 CNS
[4] = test system: NCI-H23 lung
[5] = test system: HT29 colon
[6] = test system: K-562 leukemia
[7] = test system: RPMI-8226 leukemia
[8] = test system: MCF7 breast
[9] = test system: MOLT-4 leukemia
[10] = test system: NCI-H226 lung
[11] = test system: SR leukemia
[12] = test system: A498 renal
[13] = test system: SF-295 CNS
[14] = test system: SNB-19 CNS
[15] = test system: IGROV1 ovarian
[16] = test system: PC-3 prostate
[17] = test system: SNB-75 CNS
[18] = test system: SW-620 colon
[19] = test system: CCRF-CEM leukemia
[20] = test system: NCI-H460 lung
[21] = test system: NCI-H522 lung
[22] = test system: TK-10 renal
[23] = test system: OVCAR-3 ovarian
[24] = test system: SK-MEL-5 melanoma
[25] = test system: LOX IMVI melanoma
[26] = test system: KM12 colon
[27] = test system: SK-MEL-28 melanoma
[28] = test system: ACHN renal
[29] = test system: EKVX NSCLC
[30] = test system: CAKI-1 renal
[31] = test system: HS 578T breast
[32] = test system: HOP-92 NSCLC
[33] = test system: HCT-116 colon
[34] = test system: SK-OV-3 ovarian
[35] = test system: RXF 393 renal
[36] = test system: OVCAR-8 ovarian
[37] = test system: UACC-257 melanoma
[38] = test system: HCT-15 colon
[39] = test system: U251 CNS
[40] = test system: UACC-62 melanoma
[41] = test system: SN12C renal
[42] = test system: HOP-62 NSCLC
[43] = test system: 786-0 renal
[44] = test system: COLO 205 colon
[45] = test system: DU-145 prostate
[46] = test system: UO-31 renal
[47] = test system: A549 NSCLC
[48] = test system: BT-549 breast
[49] = test system: SF-539 CNS
[50] = test system: HCC-2998 colon
[51] = test system: MDA-MB-231 breast
[52] = test system: HL-60(TB) leukemia
[53] = test system: T-47D breast
[54] = test system: OVCAR-5 ovarian
[55] = test system: MALME-3M melanoma

Cn1cc(C2=C(c3cn(C)c4ncccc34)C(=O)NC2=O)c2ccccc21 was tested, and the GI50 [1] was 5.47 µM and the TGI [1] was greater than 25 µM.

Compound CC(C)CCC[C@@H](C)[C@H]1CC[C@H]2[C@@H]3CC=C4C[C@@H](C(C(=O)O)C(=O)O)CC[C@]4(C)[C@H]3CC[C@]12C has a GI50 [1] of 0.337 µM and a TGI [1] of 0.892 µM.

Work on CCCCCN(CCCCC)CC(O)c1cc(C)c2ccc3cc(C(C)C)ccc3c2c1 (stereo not given) yielded a GI50 [1] of 1.74 µM and a TGI [1] of 3.29 µM.

In the case of NC(=O)c1cccc2cn(-c3ccc([C@@H]4CCCNC4)cc3)nc12, the GI50 [1] is reported as 6.09 µM and the TGI [1] is reported as 18.9 µM.

O=C1CC(c2ccc3c(c2)OCO3)Nc2ccccc21 (stereo not given) gave a GI50 [1] of 4.22 µM and a TGI [1] of 23.9 µM.

In the case of CCC(CO)Nc1nc2ccc(Cl)cc2c2ccccc12 (stereo not given), the GI50 [1] is reported as 5.28 µM and the TGI [1] is reported as 19.5 µM.

With OCc1ccc(N2CCC2c2ccc(F)cc2)cc1Cl (stereo not given) the GI50 [1] was 0.0304 µM and the TGI [1] was 0.251 µM.

O=C(Nc1ccc(Cl)c(Cl)c1)Nc1ccc(Cl)c(Cl)c1 was tested, and the GI50 [1] was 1.84 µM and 2.21 µM and the TGI [1] was 6.69 µM and 6.1 µM.

Nc1nc(-c2cccc([N+](=O)[O-])c2)c(N=Nc2cccc([N+](=O)[O-])c2)s1 was tested, and the GI50 [1] was 30.5 µM and the TGI [1] was greater than 100 µM.

Compound Cc1nc2ccccc2c(N)c1-c1cc(C)c2c(C)nc3ccccc3c2n1 has a GI50 [1] of 1.64 µM and a TGI [1] of 3.73 µM.

COc1ccc2c(C3=C(c4cn(C)c5ccccc45)C(=O)NC3=O)cn(C)c2c1 gave a GI50 [1] of 0.112 µM and a TGI [1] of 10.2 µM.

In the case of COC1CCC(N2C(=O)CNc3ncc(-c4ccc(C(C)(C)O)nc4)nc32)CC1 (stereo not given), the GI50 [1] is reported as 0.43 µM and 0.407 µM and the TGI [1] is reported as 3.51 µM and 5.38 µM.

Compound COC(=O)[C@@H](NC(=O)CNC(=O)[C@H]1CCCN1C(=O)C(Cc1ccccc1)NC(=S)Nc1cc(C(F)(F)F)cc(C(F)(F)F)c1)C(C)C (stereo not given in full) (X6-[ξF][dP]GV-OMe) has a GI50 [1] of 1.5 µM and a TGI [1] of 3.23 µM.

Work on C#Cc1ccc(-n2c(/C=C/c3ccc(C(F)(F)F)cc3)nc3ncccc3c2=O)cc1 yielded a GI50 [1] of 1.51 µM and a TGI [1] of 3.63 µM.

O=C1/C(=C/c2cccc([N+](=O)[O-])c2)COc2ccc(O)cc21 gave a GI50 [1] of 2.26 µM and a TGI [1] of 5 µM.

In the case of Cc1ccc(C(=O)/C(=C/c2ccc([N+](=O)[O-])cc2)SCc2ccc(Cl)cc2)cc1, the GI50 [1] is reported as 2.76 µM and the TGI [1] is reported as 7.46 µM.

Work on CCCCCN(CCCCC)CCCNc1c2c(nc3ccc(Cl)cc13)CCCC2 yielded a GI50 [1] of 2.44 µM and a TGI [1] of 6.31 µM.

Work on COc1cc(-c2nn(-c3ccc(NC(=O)c4ccc(Cl)c(C(F)(F)F)c4)cc3)cc2-c2ccncc2)ccc1Cl yielded a GI50 [1] of 2.95 µM and a TGI [1] of 16 µM.

COc1ccc2[nH]cc(-c3csc4nc(-c5ccccc5)cn34)c2c1 was tested, and the GI50 [1] was 0.362 µM and the TGI [1] was 2.07 µM.

COC1=CC(c2ccc[nH]2)=N/C1=C\c1[nH]c(C)c(C(=O)OC(C)C)c1C showed a GI50 [1] of 0.111 µM and a TGI [1] of 1.39 µM.

Compound NC(=Nc1ccc(OCCCCCCCCn2cnnn2)cc1)c1ccccc1 has a GI50 [2] of 12.4 µM, a TGI [2] greater than 100 µM and a GI50 [3] of 6.87 µM. The TGI [3] was greater than 79.7 µM, the GI50 [4] was 0.436 µM and the TGI [4] was 20.1 µM. For the same compound, the GI50 [5] was 0.269 µM, the TGI [5] was 2.26 µM and the GI50 [6] was 0.183 µM. For the same compound, the TGI [6] was greater than 55.1 µM, the GI50 [7] was 0.364 µM and the TGI [7] was 19.6 µM. For the same compound, the GI50 [8] was 0.157 µM, the TGI [8] was 18.9 µM and the GI50 [9] was 0.46 µM. For the same compound, the TGI [9] was greater than 72.2 µM, the GI50 [10] was 0.321 µM and the TGI [10] was 4.55 µM. For the same compound, the GI50 [11] was 0.0752 µM, the TGI [11] was greater than 50.5 µM and the GI50 [12] was 17.4 µM. It also gave a TGI [12] of 63.4 µM, a GI50 [13] of 0.281 µM and a TGI [13] of 12.4 µM. The GI50 [14] was 0.594 µM, the TGI [14] was greater than 100 µM and the GI50 [15] was 0.717 µM. For the same compound, the TGI [15] was 21.8 µM, the GI50 [16] was 0.454 µM and the TGI [16] was 97.7 µM. It also gave a GI50 [17] of 0.4 µM, a TGI [17] of 50.2 µM and a GI50 [18] of 0.352 µM. The TGI [18] was greater than 100 µM, the GI50 [19] was 0.358 µM and the TGI [19] was 38.2 µM. For the same compound, the GI50 [20] was 0.343 µM, the TGI [20] was 19 µM and the GI50 [21] was 0.201 µM. It also gave a TGI [21] of 0.72 µM, a GI50 [22] of 3.06 µM and a TGI [22] greater than 83.7 µM. The GI50 [23] was 0.398 µM, the TGI [23] was greater than 52 µM and the GI50 [24] was 0.282 µM. It also gave a TGI [24] of 1.42 µM, a GI50 [25] of 0.488 µM and a TGI [25] of 13.9 µM. It also gave a GI50 [26] of 0.423 µM, a TGI [26] greater than 73.1 µM and a GI50 [27] of 0.783 µM. For the same compound, the TGI [27] was greater than 49.2 µM, the GI50 [28] was 0.659 µM and the TGI [28] was 62 µM. For the same compound, the GI50 [29] was 0.418 µM, the TGI [29] was greater than 100 µM and the GI50 [30] was 0.324 µM. For the same compound, the TGI [30] was 46.1 µM, the GI50 [31] was 0.307 µM and the TGI [31] was 48.8 µM. It also gave a GI50 [32] of 8 µM, a TGI [32] of 59.4 µM and a GI50 [33] of 0.353 µM. The TGI [33] was 13.8 µM, the GI50 [1] was 0.167 µM and the TGI [1] was 0.695 µM. It also gave a GI50 [34] of 0.439 µM, a TGI [34] of 35.9 µM and a GI50 [35] of 0.216 µM. The TGI [35] was 0.752 µM, the GI50 [36] was 0.49 µM and the TGI [36] was greater than 64.8 µM. For the same compound, the GI50 [37] was 8.36 µM, the TGI [37] was greater than 60 µM and the GI50 [38] was 0.272 µM. It also gave a TGI [38] of 15.4 µM, a GI50 [39] of 0.383 µM and a TGI [39] greater than 63.5 µM. It also gave a GI50 [40] of 0.442 µM, a TGI [40] of 19.9 µM and a GI50 [41] of 0.472 µM. For the same compound, the TGI [41] was 18.2 µM, the GI50 [42] was 0.439 µM and the TGI [42] was 18.9 µM. It also gave a GI50 [43] of 0.507 µM, a TGI [43] of 30.9 µM and a GI50 [44] of 0.284 µM. It also gave a TGI [44] of 1.86 µM, a GI50 [45] of 0.438 µM and a TGI [45] greater than 100 µM. It also gave a GI50 [46] of 0.555 µM, a TGI [46] of 40.8 µM and a GI50 [47] of 0.586 µM. For the same compound, the TGI [47] was greater than 100 µM, the GI50 [48] was 0.836 µM and the TGI [48] was 18.8 µM. The GI50 [49] was 0.223 µM, the TGI [49] was 0.606 µM and the GI50 [50] was 0.494 µM. It also gave a TGI [50] of 11.7 µM, a GI50 [51] of 0.439 µM and a TGI [51] of 9.7 µM. The GI50 [52] was 0.246 µM, the TGI [52] was 0.846 µM and the GI50 [53] was 0.392 µM. It also gave a TGI [53] of 63.2 µM, a GI50 [54] of 0.458 µM and a TGI [54] greater than 41.5 µM. The GI50 [55] was 0.266 µM and the TGI [55] was 18.2 µM.

CO[C@H](C(=O)[C@@H](O)[C@@H](C)O)[C@@H]1Cc2cc3cc(O[C@H]4C[C@@H](O[C@H]5C[C@@H](O)[C@H](O)C(C)O5)[C@H](O)C(C)O4)c(C)c(O)c3c(O)c2C(=O)[C@H]1O[C@H]1C[C@@H](O[C@H]2C[C@@H](O[C@H]3C[C@](C)(O)C(=O)C(C)O3)[C@@H](O)C(C)O2)[C@H](O)C(C)O1 (stereo not given in full) gave a GI50 [1] of 0.0684 µM and a TGI [1] of 0.515 µM.

In the case of Clc1ccc2c(NCCCCNc3nc(N4CCCCC4)nc4ccccc34)ccnc2c1, the GI50 [1] is reported as 1.64 µM and the TGI [1] is reported as 3.63 µM.

O=C(/C=C/C12c3ccccc3C(c3ccccc31)C1C(=O)NC(=O)C12)c1ccncc1 (stereo not given) was tested, and the GI50 [1] was 1.82 µM and the TGI [1] was 4.02 µM.

In the case of CC/C=C\CCC/C=C1/C(=O)C=C[C@@H]1C/C=C\CCCC(=O)OC, the GI50 [1] is reported as 3.2 µM and the TGI [1] is reported as 10.1 µM.

With NC(=O)c1sc(-n2cnc3ccccc32)cc1OCc1ccccc1Br the GI50 [1] was 0.34 µM and the TGI [1] was 2.18 µM.
